Test results taken from US20250332149A1, “PIPERIDINE COMPOUNDS AND PHARMACEUTICAL COMPOSITIONS” (Lumos Pharma, Inc., priority 2024, published 2025).
Where two headings read alike, the source gives them in different places.

Test: Phase 1 study Part 1: plasma PK and relative bioavailability of LUM-201 tablets vs capsule
Format: in vivo, human
Conditions: for decrease of DNCmax as compared to the 90 mg tablet dose, fasted: statistically significant; for Tmax / AUC(0-inf) / AUC(0-t) / Cmax / half-life: human, plasma
Description: This study in healthy adult subjects was designed to establish the pharmacokinetic (PK) and pharmacodynamic (PD) profiles for the orally administered test product (coated mini-tablets in a capsule) and reference product (mini-tablet) to evaluate relative bioavailability in Part 1 and to evaluate the food effect on the bioavailability of test product (capsule only) in Part 2.
This was a single center, open-label, randomized, Phase 1 study in healthy adult subjects. This study consisted of 2 parts: Part 1 was a 4-sequence, 4-treatment, 4 Treatment Periods, crossover study to determine the relative bioavailability of current tablets to new capsule formulations of LUM-201; Part 2 was a 2-sequence, 2-treatment, 2 Treatment Periods, crossover study to evaluate the food effect on the bioavailability of the new capsule formulation of LUM-201. An individual subject was allowed to participate in only 1 part (Part 1 or Part 2) of the study. Forty subjects were planned and enrolled in this study. • Part 1: A total of 28 subjects were planned and enrolled in Part 1. Part 1 consisted of 4 sequences, each having 4 Treatment Periods enrolling 7 subjects (1:1:1:1 ratio). During Treatment Periods 1 through 4, each subject received 4 single oral doses of LUM-201 drug product in a randomized, crossover order. • Part 2: A total of 12 subjects were planned and enrolled in Part 2. Part 2 consisted of 2 sequences, each having 2 Treatment Periods enrolling 6 subjects (1:1 ratio). Each subject received a single oral dose of LUM-201 at each Treatment Period. During Treatment Periods 1 and 2, each subject received 2 single oral doses of LUM-201 in a randomized, crossover order. • On Day 1 of Treatment Period 1, subjects were administered the assigned treatment (A or B) as randomized, followed by a washout of at least 3 days between Treatment Periods 1 and 2. Subjects stayed in-house (not discharged) between the Treatment Periods. • Treatment A was dosed at 85.3 mg capsule formulation of LUM-201 (intact capsule consumed unopened) consumed while subject was in a fasted state with 240 mL of water. • Treatment B was dosed at 85.3 mg capsule formulation of LUM-201 (intact capsule consumed unopened) consumed 30 minutes after start of a high-fat meal with 240 mL of water. • Subjects were discharged from the study center on the morning of Day 3 of Treatment Period 2 after the scheduled study assessments had been completed.
• Treatment A (reference): five 18 mg oral tablets of LUM-201 were administered under fasted state with 240 mL of water. • Treatment B (test): a single 85.3 mg dose of oral capsule formulation of LUM-201 was administered as a whole capsule under fasted state with 240 mL of water. • Treatment C (test): a single 85.3 mg dose of oral capsule formulation of LUM-201 was administered by dosing capsule contents (dry) under fasted state with 240 mL of water. • Treatment D (test): a single 85.3 mg dose of oral capsule formulation of LUM-201 was mixed (capsule contents) with banana puree (2 teaspoons), followed by 240 mL of water and was ingested within 5 minutes under fasted state (Note: Banana Puree, single serve cup was used [118.3 mL]). […]

[1] = Part 1, Treatment D (test): 85.3 mg capsule contents in banana puree, oral, fasted
[2] = Part 1, Treatment D (test): 85.3 mg capsule contents in banana puree, oral, fasted, ANOVA
[3] = test Treatment B (85.3 mg whole capsule, fasted) to reference Treatment A (90 mg tablets, fasted)
[4] = test Treatment C (85.3 mg capsule contents in dosing cup, fasted) to reference Treatment A (90 mg tablets, fasted)
[5] = test Treatment D (85.3 mg capsule contents in banana puree) to reference Treatment A (90 mg tablets, fasted)

CC(C)(N)C(=O)N[C@H](COCc1ccccc1)C(=O)N1CCC2(CC1)CN(S(C)(=O)=O)c1ccccc12 [LUM-201, N-[1(R)-[(1,2-dihydro-1-methanesulfonylspiro[3H-indole-3,4′-piperdin]-yl)carbonyl]-2-(phenylmethyloxy)ethyl]-2-amino-2-methylpropanamide methanesulfonate]
DNAUC0-last, Geometric Mean [1]: 6.276 ng·h/mL/mg
DNCmax, Arithmetic Mean [1]: 1.422 ng/mL/mg
DNCmax, Geometric Mean [1]: 1.087 ng/mL/mg
t1/2, Geometric Mean [1]: 8.09 h
tlag, Median [1]: 0 h
tlast, Median [1]: 48.02 h
λz, Arithmetic Mean [1]: 0.0872 h⁻¹
λz, Geometric Mean [1]: 0.0856 h⁻¹
DNAUC0-inf, GLS Mean [2]: 6.38 ng·h/mL/mg
DNAUC0-last, GLS Mean [2]: 6.26 ng·h/mL/mg
DNCmax, GLS Mean [2]: 1.08 ng/mL/mg
decrease of DNCmax as compared to the 90 mg tablet dose, fasted (Treatment B: 85.3 mg whole capsule, fasted): 14.1%
decrease of DNCmax as compared to the 90 mg tablet dose, fasted (Treatment C: 85.3 mg capsule contents in a dosing cup, fasted): 20.4%
decrease of DNCmax as compared to the 90 mg tablet dose, fasted (Treatment D: 85.3 mg capsule contents in banana puree): 14.4%
Tmax (oral, Part 1, post-dose, Treatments A to D, read-out: median tmax, range over all four treatments): 0.782 to 1.23 h
AUC(0-inf) (po, 85.3 mg, Part 1, Treatment B (test): 85.3 mg whole capsule, oral, fasted, read-out: AUC0-inf, Arithmetic Mean): 566 ng·h/mL
AUC(0-inf) (po, 85.3 mg, Part 1, Treatment B (test): 85.3 mg whole capsule, oral, fasted, read-out: AUC0-inf, Geometric Mean): 512 ng·h/mL
AUC(0-t) (po, 85.3 mg, Part 1, Treatment B (test): 85.3 mg whole capsule, oral, fasted, read-out: AUC0-last, Arithmetic Mean): 557 ng·h/mL
AUC(0-t) (po, 85.3 mg, Part 1, Treatment B (test): 85.3 mg whole capsule, oral, fasted, read-out: AUC0-last, Geometric Mean): 504 ng·h/mL
Cmax (po, 85.3 mg, Part 1, Treatment B (test): 85.3 mg whole capsule, oral, fasted, read-out: Cmax, Arithmetic Mean): 115 ng/mL
Cmax (po, 85.3 mg, Part 1, Treatment B (test): 85.3 mg whole capsule, oral, fasted, read-out: Cmax, Geometric Mean): 93.2 ng/mL
half-life (po, 85.3 mg, Part 1, Treatment B (test): 85.3 mg whole capsule, oral, fasted, read-out: t1/2, Arithmetic Mean (converted)): 8.19 h
half-life (po, 85.3 mg, Part 1, Treatment B (test): 85.3 mg whole capsule, oral, fasted, read-out: t1/2, Geometric Mean (converted)): 8.06 h
Tmax (po, 85.3 mg, Part 1, Treatment B (test): 85.3 mg whole capsule, oral, fasted, read-out: tmax, Median): 1.23 h
AUC(0-inf) (po, 85.3 mg, Part 1, Treatment C (test): 85.3 mg capsule contents (dry), oral, fasted, read-out: AUC0-inf, Arithmetic Mean): 583 ng·h/mL
AUC(0-inf) (po, 85.3 mg, Part 1, Treatment C (test): 85.3 mg capsule contents (dry), oral, fasted, read-out: AUC0-inf, Geometric Mean): 534 ng·h/mL
AUC(0-t) (po, 85.3 mg, Part 1, Treatment C (test): 85.3 mg capsule contents (dry), oral, fasted, read-out: AUC0-last, Arithmetic Mean): 573 ng·h/mL
AUC(0-t) (po, 85.3 mg, Part 1, Treatment C (test): 85.3 mg capsule contents (dry), oral, fasted, read-out: AUC0-last, Geometric Mean): 524 ng·h/mL
Cmax (po, 85.3 mg, Part 1, Treatment C (test): 85.3 mg capsule contents (dry), oral, fasted, read-out: Cmax, Arithmetic Mean): 98.9 ng/mL
Cmax (po, 85.3 mg, Part 1, Treatment C (test): 85.3 mg capsule contents (dry), oral, fasted, read-out: Cmax, Geometric Mean): 86.5 ng/mL
half-life (po, 85.3 mg, Part 1, Treatment C (test): 85.3 mg capsule contents (dry), oral, fasted, read-out: t1/2, Arithmetic Mean (converted)): 8.58 h
half-life (po, 85.3 mg, Part 1, Treatment C (test): 85.3 mg capsule contents (dry), oral, fasted, read-out: t1/2, Geometric Mean (converted)): 8.47 h
Tmax (po, 85.3 mg, Part 1, Treatment C (test): 85.3 mg capsule contents (dry), oral, fasted, read-out: tmax, Median): 1.12 h
AUC(0-inf) (po, 85.3 mg, Part 1, Treatment D (test): 85.3 mg capsule contents in banana puree, oral, fasted, read-out: AUC0-inf, Arithmetic Mean): 629 ng·h/mL
AUC(0-inf) (po, 85.3 mg, Part 1, Treatment D (test): 85.3 mg capsule contents in banana puree, oral, fasted, read-out: AUC0-inf, Geometric Mean): 546 ng·h/mL
AUC(0-t) (po, 85.3 mg, Part 1, Treatment D (test): 85.3 mg capsule contents in banana puree, oral, fasted, read-out: AUC0-last, Arithmetic Mean): 619 ng·h/mL
AUC(0-t) (po, 85.3 mg, Part 1, Treatment D (test): 85.3 mg capsule contents in banana puree, oral, fasted, read-out: AUC0-last, Geometric Mean): 535 ng·h/mL
Cmax (po, 85.3 mg, Part 1, Treatment D (test): 85.3 mg capsule contents in banana puree, oral, fasted, read-out: Cmax, Arithmetic Mean): 121 ng/mL
Cmax (po, 85.3 mg, Part 1, Treatment D (test): 85.3 mg capsule contents in banana puree, oral, fasted, read-out: Cmax, Geometric Mean): 92.7 ng/mL
half-life (po, 85.3 mg, Part 1, Treatment D (test): 85.3 mg capsule contents in banana puree, oral, fasted, read-out: t1/2, Arithmetic Mean (converted)): 8.23 h
half-life (po, 85.3 mg, Part 1, Treatment D (test): 85.3 mg capsule contents in banana puree, oral, fasted, read-out: t1/2, Geometric Mean (converted)): 8.1 h
Tmax (po, 85.3 mg, Part 1, Treatment D (test): 85.3 mg capsule contents in banana puree, oral, fasted, read-out: tmax, Median): 1.03 h
AUC(0-inf) (po, 90 mg, Part 1, Treatment A (reference): five 18 mg tablets (90 mg), oral, fasted, read-out: AUC0-inf, Arithmetic Mean): 630 ng·h/mL
AUC(0-inf) (po, 90 mg, Part 1, Treatment A (reference): five 18 mg tablets (90 mg), oral, fasted, read-out: AUC0-inf, Geometric Mean): 562 ng·h/mL
AUC(0-t) (po, 90 mg, Part 1, Treatment A (reference): five 18 mg tablets (90 mg), oral, fasted, read-out: AUC0-last, Arithmetic Mean): 620 ng·h/mL
AUC(0-t) (po, 90 mg, Part 1, Treatment A (reference): five 18 mg tablets (90 mg), oral, fasted, read-out: AUC0-last, Geometric Mean): 552 ng·h/mL
Cmax (po, 90 mg, Part 1, Treatment A (reference): five 18 mg tablets (90 mg), oral, fasted, read-out: Cmax, Arithmetic Mean): 132 ng/mL
Cmax (po, 90 mg, Part 1, Treatment A (reference): five 18 mg tablets (90 mg), oral, fasted, read-out: Cmax, Geometric Mean): 114 ng/mL
half-life (po, 90 mg, Part 1, Treatment A (reference): five 18 mg tablets (90 mg), oral, fasted, read-out: t1/2, Arithmetic Mean (converted)): 7.95 h
half-life (po, 90 mg, Part 1, Treatment A (reference): five 18 mg tablets (90 mg), oral, fasted, read-out: t1/2, Geometric Mean (converted)): 7.83 h
Tmax (po, 90 mg, Part 1, Treatment A (reference): five 18 mg tablets (90 mg), oral, fasted, read-out: tmax, Median): 0.782 h
DNAUC0-inf, Geo LSM Ratio % [3]: 95.50%
DNAUC0-last, Geo LSM Ratio % [3]: 95.50%
DNCmax, Geo LSM Ratio % [3]: 85.90%
DNAUC0-inf, Geo LSM Ratio % [4]: 99.50%
DNAUC0-last, Geo LSM Ratio % [4]: 99.40%
DNCmax, Geo LSM Ratio % [4]: 79.60%
DNAUC0-inf, Geo LSM Ratio % [5]: 102.20%
DNAUC0-last, Geo LSM Ratio % [5]: 102.00%
DNCmax, Geo LSM Ratio % [5]: 85.60%
